{"source": "the OPERA property sets (Mansouri et al. 2018)", "note": "Peptide text beside a SMILES is read from it."}
{"compound": "CC(=O)c1cccc(F)c1", "logP": 1.77}
{"compound": "CN(C)CCCc1ccco1", "logP": 2.08}
{"compound": "NS(=O)(=O)Nc1ccccc1", "logP": 0.4}
{"compound": "Nc1ccc(-c2ccc(N)cc2)cc1", "logP": 1.34}
{"compound": "Cc1ccccc1OC(=O)N(C)C", "logP": 1.86}
{"compound": "NS(=O)(=O)c1cccc(S(N)(=O)=O)c1", "logP": -0.55}
{"compound": "COc1cccc(COC(C)=O)c1", "logP": 2.02}
{"compound": "CCOC(=O)c1ccc(N=NN(C)CCO)cc1", "logP": 2.66}
{"compound": "N#Cc1cccc(F)c1", "logP": 1.47}
{"compound": "O=c1[nH]c(=O)n(C2CCCO2)cc1F", "note": "(stereo not drawn)", "logP": -0.27}
{"compound": "O=C(O)c1cccc2ccccc12", "logP": 3.1}
{"compound": "Nc1ccc(F)c(Cl)c1", "logP": 2.06}
{"compound": "O=C1CN(N=Cc2ccc([N+](=O)[O-])o2)C(=O)N1", "logP": -0.47}
{"compound": "Brc1ccsc1Br", "logP": 3.53}
{"compound": "NS(=O)(=O)c1cc2c(cc1Cl)NC(CCl)NS2(=O)=O", "note": "(stereo not drawn)", "logP": 0.11}
{"compound": "CC(=O)N[C@H](C(=O)N[C@@H](C)C(=O)N[C@H](C(N)=O)C(C)C)C(C)C", "note": "(Ac-Val-Ala-Val-NH2)", "logP": -0.67}
{"compound": "COC(OC)(OC)c1ccccc1", "logP": 2.27}
{"compound": "Cc1c(CC(=O)O)sc2ccc(Cl)cc12", "logP": 3.92}
{"compound": "COP(=O)(OC)Oc1ccc([N+](=O)[O-])c(C(C)C)c1", "logP": 2.57}
{"compound": "O=C(O)Cc1ccccc1Nc1ccc(Cl)c(Cl)c1", "logP": 4.9}
{"compound": "O=C(O)Cc1sc(-c2ccccc2)nc1-c1ccc(Cl)cc1", "logP": 5.19}
{"compound": "CCCCOCCOCCO", "logP": 0.56}
{"compound": "Cc1nnc(SCC2=C(C(=O)O)N3C(=O)[C@@H](NC(=O)Cn4cnnn4)[C@H]3SC2)s1", "logP": -0.58}
{"compound": "Oc1ccc(O)c(Cl)c1", "logP": 1.4}
{"compound": "CS(=O)(=O)c1ccccc1", "logP": 0.5}
{"compound": "CCC(=O)OCC(=O)C1(O)CCC2C3CCC4=CC(=O)CCC4(C)C3C(O)CC21C", "note": "(stereo not drawn)", "logP": 2.8}
{"compound": "O=[N+]([O-])c1cccc(CO)c1", "logP": 1.21}
{"compound": "Nc1cc(Cl)c(Cl)c(Cl)c1", "logP": 3.32}
{"compound": "COc1cccc(CC(=O)O)c1", "logP": 1.5}
{"compound": "CCOC(=O)C(=Cc1ccc(Br)cc1)C(=O)OCC", "logP": 4.02}
{"compound": "O=C(COC(=O)c1ccccc1)NC1CCCCC1", "logP": 2.81}
{"compound": "Nc1ccc(S)cc1", "logP": 1.31}
{"compound": "C=C(C)C(=O)O", "logP": 0.93}
{"compound": "Brc1ccc(Br)cc1", "logP": 3.79}
{"compound": "N#CCc1ccsc1", "logP": 1.26}
{"compound": "CC(=O)Nc1ccc(S(=O)(=O)F)cc1", "logP": 2.17}
{"compound": "Nc1ccc(C(=O)Oc2cccc(F)c2)c(O)c1", "logP": 3.42}
{"compound": "CCCN1CCCN(CCC)C1=S", "logP": 2.83}
{"compound": "CNC(=O)Oc1ccccc1C", "logP": 1.46}
{"compound": "OCCCF", "logP": -0.28}
{"compound": "CCCCC(O)CC", "note": "(stereo not drawn)", "logP": 2.24}
{"compound": "On1nc2ccccc2n1", "logP": 0.69}
{"compound": "COc1nnc(OC)c2ccccc12", "logP": 2.22}
{"compound": "COc1cc(CC(C)N)cc(OC)c1Br", "note": "(stereo not drawn)", "logP": 2.44}
{"compound": "O=C(c1ccco1)C(O)c1ccco1", "note": "(stereo not drawn)", "logP": 0.54}
{"compound": "c1ccc2cc3ccccc3cc2c1", "logP": 4.45}
{"compound": "Nc1ccc(S(=O)(=O)Nc2cccnc2Cl)cc1", "logP": 1.58}
{"compound": "Cn1cnc2c1c(=O)[nH]c(=O)n2C", "logP": -0.78}
{"compound": "Cc1ccc(NC(=O)N(C)C)cc1Cl", "logP": 2.41}
{"compound": "COC(=O)C(=Cc1ccccc1)C(=O)OC", "logP": 2.24}
{"compound": "Nc1ncnc2nc(-c3ccccc3)[nH]c12", "logP": 2.31}
{"compound": "CCCCCCOC1OC(CO)C(O)C(O)C1O", "note": "(stereo not drawn)", "logP": 0.16}
{"compound": "CCCCCCOC(=O)c1ccc(O)cc1", "logP": 4.35}
{"compound": "Nc1ccc(C(=O)Oc2cccc(C(F)(F)F)c2)c(O)c1", "logP": 3.61}
{"compound": "c1ccc(-c2cnc(-c3ccccc3)o2)cc1", "logP": 4.67}
{"compound": "CC1CCCCN1N=O", "note": "(stereo not drawn)", "logP": 0.71}
{"compound": "CS(=O)(=O)Nc1ccccc1", "logP": 0.95}
{"compound": "CCC(=O)N(C)C", "logP": -0.11}
{"compound": "O=[N+]([O-])c1cc[n+]([O-])c2c(F)cccc12", "logP": 1}
{"compound": "CCOC(=O)C(C#N)=Cc1ccccc1", "logP": 2.43}
{"compound": "COc1cc(S(C)=O)ccc1-c1nc2nccnc2[nH]1", "note": "(stereo not drawn)", "logP": 0.66}
{"compound": "Nc1cccc(Br)c1", "logP": 2.1}
{"compound": "CCC(=O)C1(c2cccc(OC(=O)c3ccccc3)c2)CCN(C)CC1", "logP": 3.03}
{"compound": "Cc1ccc(N)c(C)c1", "logP": 1.68}
{"compound": "CCCC[Si](C)(C)C", "logP": 4.2}
{"compound": "OCCCc1ccccc1", "logP": 1.88}
{"compound": "NC(=O)c1ccsc1", "logP": 0.5}
{"compound": "CCCSCS(=O)CC(CO)NC(=O)C=Cc1c(C)[nH]c(=O)[nH]c1=O", "note": "(stereo not drawn)", "logP": -0.67}
{"compound": "O=[N+]([O-])c1cc(Br)c(O)c(Br)c1", "logP": 3.57}
{"compound": "c1ccc2c(c1)CCCC2", "logP": 3.49}
{"compound": "COc1nccnc1NS(=O)(=O)c1ccc(N)cc1", "logP": 0.7}
{"compound": "Oc1c(Cl)cc(Cl)c(Cl)c1Cl", "logP": 4.45}
{"compound": "NC(Cc1c[nH]c2cc(F)ccc12)C(=O)O", "note": "(stereo not drawn)", "logP": -0.78}
{"compound": "O=Cc1ccc(Cl)cc1", "logP": 2.1}
{"compound": "c1cncc(CN2CCOCC2)c1", "logP": 0.04}
{"compound": "CNC(=O)Oc1cccc(C)c1C", "logP": 1.95}
{"compound": "N#Cc1ccc(CC(=O)Nc2ccccc2)cc1", "logP": 2.82}
{"compound": "CCOC(=O)C(=Cc1ccccc1)C(C)=O", "logP": 2.21}
{"compound": "FN(F)C(c1ccccc1)(c1ccccc1)c1ccccc1", "logP": 3.73}
{"compound": "O=C1C=C(N2CC2)C(=O)C(N2CC2)=C1N1CC1", "logP": -0.13}
{"compound": "Clc1ccccc1Cl", "logP": 3.43}
{"compound": "C#CC(C)(C)O", "logP": 0.28}
{"compound": "C=CCSc1ccccc1", "logP": 3.51}
